According to patent US20060019933A1, “Process for preparing stabilized vitamin D” (priority 2004, published 2006):

Columns and labels:
vitamin D receptor = target: T1, vitamin D receptor (Homo sapiens, UniProt P11473); details: agonism at the vitamin D receptor without 1α-hydroxylation; cited from earlier work
T1 sequence (P11473 1-427): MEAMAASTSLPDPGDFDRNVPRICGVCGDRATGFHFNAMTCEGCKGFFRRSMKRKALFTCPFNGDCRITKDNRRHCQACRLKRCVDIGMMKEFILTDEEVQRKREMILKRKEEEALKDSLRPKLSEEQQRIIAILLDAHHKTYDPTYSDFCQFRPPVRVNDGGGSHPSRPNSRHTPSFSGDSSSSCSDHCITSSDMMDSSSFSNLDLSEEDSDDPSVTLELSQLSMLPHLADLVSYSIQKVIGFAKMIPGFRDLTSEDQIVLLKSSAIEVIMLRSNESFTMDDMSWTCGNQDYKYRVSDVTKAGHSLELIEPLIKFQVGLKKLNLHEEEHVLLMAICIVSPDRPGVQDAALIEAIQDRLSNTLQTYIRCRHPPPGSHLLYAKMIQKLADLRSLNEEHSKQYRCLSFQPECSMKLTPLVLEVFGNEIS

[1] = Chemical stability of neat, crystalline vitamin D3 at 40° C. and various humidities; assay type: physicochemical; details: one week
Experimental: Stability of neat, crystalline vitamin D3 was investigated at 40° C. and 5%, 20%, 50%, 75% relative humidity (% RH) over the course of one week. This experiment was used as a baseline for comparison of vitamin D3 stability after formulation as indicated above. A pronounced dependence of degradation rate upon relative humidity was observed, as depicted in FIG. 1. Under low humidity conditions, loss of active occurred at a rate of 0.58%/day and 0.76%/day at 5% RH and 20% RH, respectively.

[2] = Stability of amorphous vitamin D3 cast as a thin film; assay type: physicochemical
Source text: In an additional experiment, vitamin D3 was cast as a thin film by evaporating a solution of vitamin D in ethyl acetate and the stability of this amorphous form of vitamin D was also investigated. […] The results of this and the previous experiment highlight the inherently low stability of vitamin D and the impact of both humidity and physical form (crystalline vs. amorphous) on degradation rates.

For `C=C1CC[C@H](O)C/C1=C/C=C1\CCC[C@]2(C)[C@@H]([C@H](C)CCCC(C)(C)O)CC[C@@H]12` [25-hydroxy-cholecalciferol], the “intrinsic activity, fold lower than that of 1α,25-dihydroxy-cholecalciferol” value (vitamin D receptor) is listed as “about 100 fold”.
With `C=C1CC[C@H](O)C/C1=C/C=C1\CCC[C@]2(C)[C@@H]([C@H](C)CCCC(C)C)CC[C@@H]12` [vitamin D3, cholecalciferol] the “rate of loss of active” value ([1]; 5% RH) was 0.58 %/day, the “rate of loss of active” value ([1]; 20% RH) was 0.76 %/day and the degradation rate ([1]; 50% RH) was 5.5 %/day. The degradation rate ([1]; 75% RH) was 10.8 %/day, the “degradation after 3 days” value ([2]; 25° C.) was “Essentially complete degradation” and the “degradation after 3 days” value ([2]; 40° C.) was “Essentially complete degradation”. For the same compound, the “degradation after 3 days” value ([2]; 40° C./75% RH) was “Essentially complete degradation”.
